Laboratory results from US20030018176A1, “Dry acid-chitosan complexes” (priority 1999, published 2003).

Tests used:
[1] = Fat binding feeding study in rats on formulated high fat diet
Description: (§1) All rats were fed a basal diet for 5 days prior to initiation of dosing on Day 0. At Day 0, animals in Groups 1 to 5 and 7 received the appropriate formulated diet. The diet was available ad libitum. […] The total amount of the diet consumed by each animal was determined every 3 to 4 days.

[2] = rat, in vivo
Description: as §1

Q: With `CCCCCCCCCCC[C@@H](C[C@@H]1OC(=O)[C@H]1CCCCCC)OC(=O)[C@H](CC(C)C)NC=O` [Xenical] as the compound, how does the Triglycerides ([1]; blood of rats, test article in diet) read?
A: 107 mg/dL

Q: What about the “Weight Gain” value ([1]; rats, test article in diet ad libitum) of the same compound?
A: 425 gms

Q: And the ALT [2]?
A: 54 IU/L

Q: And the AST [2]?
A: 104 IU/L

Q: And the Bilirubin [2]?
A: 0.4 mg/dL
